Test results taken from patent publication US6720346B2, “Thiazole benzamide derivatives and pharmaceutical compositions for inhibiting cell proliferation” (Agouron Pharmaceuticals, Inc., priority 2001, dated 2004).
Counter-ions that a name gives are not always drawn.

Experiments:
human CDK4/cyclin D3 = biological target: T1, human CDK4/cyclin D3 (Homo sapiens, UniProt P11802); experiment: Inhibition of CDK4/cyclin D retinoblastoma kinase activity (Ki; % inhibition); type: biochemical; details: for Ki: apparent Ki, CDK4/cyclin D3, Rb substrate
T1 construct: made in house; host or cells: insect cells co-infected with baculovirus vectors
How it was run: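 Radiometric filter-binding read-out: Rb residues 386-928 phosphorylated by 5 nM CDK4/cyclin D3(1-264) from baculovirus-infected insect cells, 25 μM ATP, HEPES pH 7.4, 30 °C. Run 20 min, or 60 min for tight-binding inhibitors. Screening at 30 nM theoretical compound; apparent Ki by competitive-inhibition fitting.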

HCT-116 cell line = experiment: Inhibition of cell growth, MTT tetrazolium salt assay; type: cell-based; details: for IC50: Homo sapiens, HCT-116, 120 h, MTT, three to five days; for HCT-116 % Inhibition at 0.1 μM: 0.1 μM compound
How it was run: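 Growth inhibition was read as MTT-formazan absorbance at 540 nm, after 4 h with 0.2 mg/mL MTT. Before that, HCT-116 cells had been exposed 3–5 days at 37 °C to compounds in 0.5% (v/v) DMSO, added 4 h after plating. 50% and 90% inhibitory concentrations were taken from semi-log concentration–inhibition plots versus vehicle controls.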

CDK2/cyclin A = biological target: T2, CDK2/cyclin A (Homo sapiens, UniProt P24941); experiment: Inhibition of CDK2/cyclin A retinoblastoma kinase activity (Ki; % inhibition); type: biochemical; details: for Ki: apparent Ki, CDK2/cyclin A, Rb substrate
T2 construct: made in house; host or cells: CDK2: insect cells (baculovirus); cyclin A: E. coli
How it was run: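 Apparent Ki values came from fitting concentration-dependent activity data to competitive (or competitive tight-binding) models, and % inhibition from single 30 nM screens of library compounds. Activity was measured as ³²P/³³P incorporation from 25 μM ATP into an Rb substrate by 10 or 19 nM CDK2/delta cyclin A at 30 °C over 60–75 min, pH 7.4.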

[1] = HCT-116 cells, 0.25 μM compound

T1 sequence (P11802 whole entry): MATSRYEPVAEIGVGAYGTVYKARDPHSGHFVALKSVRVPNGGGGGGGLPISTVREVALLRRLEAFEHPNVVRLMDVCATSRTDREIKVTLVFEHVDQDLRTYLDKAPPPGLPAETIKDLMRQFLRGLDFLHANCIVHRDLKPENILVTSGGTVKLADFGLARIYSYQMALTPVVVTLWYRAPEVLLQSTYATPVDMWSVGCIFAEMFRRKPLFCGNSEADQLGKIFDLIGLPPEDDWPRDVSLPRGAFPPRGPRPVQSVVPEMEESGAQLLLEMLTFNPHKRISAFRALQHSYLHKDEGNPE
T1 sequence (P30281 1-264 partner limits assumed): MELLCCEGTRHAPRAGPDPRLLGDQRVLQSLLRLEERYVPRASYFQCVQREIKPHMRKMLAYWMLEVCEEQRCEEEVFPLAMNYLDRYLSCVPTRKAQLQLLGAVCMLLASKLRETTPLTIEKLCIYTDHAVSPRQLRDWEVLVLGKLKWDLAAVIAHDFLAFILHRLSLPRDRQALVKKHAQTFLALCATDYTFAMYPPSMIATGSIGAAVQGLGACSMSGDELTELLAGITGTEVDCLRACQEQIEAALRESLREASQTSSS

Row | Structure (SMILES) | IC50 (HCT-116 cell line) | Ki (human CDK4/cyclin D3) | Ki (CDK2/cyclin A) | further results
1 | CC(=O)Nc1ccccc1C(=O)c1sc(Nc2ccc(C(=O)NC[C@@H]3CCCN3C)cc2)nc1N [Example A72, 4-{5-(2-Acetylamino-benzoyl)-4-amino-thiazol-2-ylamino}-N-(1-methyl-pyrrolidin-2S-ylmethyl)-benzamide] | > 500 nM |  |  | inhibition at 1 µM (human CDK4/cyclin D3): 0%; inhibition at 1 µM (CDK2/cyclin A): 0%
2 | CN1CCC[C@H]1CNC(=O)c1ccc(Nc2nc(N)c(C(=O)c3ccccc3S(C)(=O)=O)s2)cc1 [Example A73, 4-{4-Amino-5-(2-methanesulfonyl-benzoyl)-thiazol-2-ylamino}-N-(1-methyl-pyrrolidin-2S-ylmethyl)-benzamide Trifluoroacetic Acid Salt] | > 5000 nM | 36000 nM | 1200 nM | 
3 | CN1CCC[C@@]1(C)CNC(=O)c1ccc(Nc2nc(N)c(C(=O)c3c(F)cccc3F)s2)cc1 [Example A74, 4-{4-Amino-5-(2,6-difluoro-benzoyl)-thiazol-2-ylamino}-N-(1,2-dimethyl-pyrrolidin-2S-ylmethyl)-benzamide Trifluoroacetic Acid Salt] | 1900 nM | 380 nM | 9.8 nM | 
4 | CN1CC(CNC(=O)c2ccc(Nc3nc(N)c(C(=O)c4c(F)cccc4F)s3)cc2)C1 [Example A75, 4-[4-Amino-5-(2,6-difluoro-benzoyl)-thiazol-2-ylamino]-N-(1-methyl-azetidin-3-ylmethyl)-benzamide] | 1900 nM | 51 nM | 7.3 nM | 
5 | CN(C)C1(CNC(=O)c2ccc(Nc3nc(N)c(C(=O)c4c(F)cccc4F)s3)cc2)CCCC1 [Example A77, 4-{[4-Amino-5-(2,6-difluorobenzoyl)-1,3-thiazol-2-yl]amino}-N-{[1-(dimethylamino)cyclopentyl]methyl}benzamide] | 120 nM | 5.2 nM | 84 nM | 
6 | CN(C)C1(CNC(=O)c2ccc(Nc3nc(N)c(C(=O)c4c(F)cccc4F)s3)cc2)CCC1 [Example A78, 4-{[4-Amino-5-(2,6-difluorobenzoyl)-1,3-thiazol-2-yl]amino}-N-{[1-(dimethylamino)cyclobutyl]methyl}benzamide] | 130 nM | 8.2 nM | 110 nM | 
7 | NC(=O)CNC(=O)c1ccc(Nc2nc(N)c(C(=O)c3c(Cl)cccc3Cl)s2)cc1 [Example B1, 4-[4-Amino-5-(2,6-dichloro-benzoyl)-thiazol-2-ylamino]-N-carbamoylmethyl-benzamide] | 18000 nM | 17 nM | 65 nM | 
8 | Nc1nc(Nc2ccc(C(=O)NCCO)cc2)sc1C(=O)c1c(Cl)cccc1Cl [Example B2, 4-[4-Amino-5-(2,6-dichloro-benzoyl)-thiazol-2-ylamino]-N-(2-hydroxy-ethyl)-benzamide] | 3600 nM | 18 nM | 96 nM | 
9 | Nc1nc(Nc2ccc(C(=O)NCC(O)CO)cc2)sc1C(=O)c1c(Cl)cccc1Cl (stereo not drawn) [Example B3, 4-[4-Amino-5-(2,6-dichloro-benzoyl)-thiazol-2-ylamino]-N-(2,3-dihydroxy-propyl)-benzamide] | 18000 nM | 8 nM | 66 nM | 
10 | CN(C)CCNC(=O)c1ccc(Nc2nc(N)c(C(=O)c3c(Cl)cccc3Cl)s2)cc1 [Example B4, 4-[4-Amino-5-(2,6-dichloro-benzoyl)-thiazol-2-ylamino]-N-(2-dimethylamino-ethyl)-benzamide] | 520 nM | 8 nM | 220 nM | 
11 | Nc1nc(Nc2ccc(C(=O)N3CCN(c4ccccn4)CC3)cc2)sc1C(=O)c1c(F)cccc1F [Example C201] |  |  |  | CDK4 % Inhibition at 0.03 μM (human CDK4/cyclin D3; 0.03 μM compound): 26%; HCT-116 % Inhibition at 0.1 μM (HCT-116 cell line; HCT-116 cells): 17%; HCT-116 % Inhibition at 0.25 μM (HCT-116 cell line; [1]): 43%; CDK2 % Inhibition at 0.03 μM (CDK2/cyclin A; 0.03 μM compound): 6%
12 | CCN(CC)C(=O)c1ccc(Nc2nc(N)c(C(=O)c3c(F)cccc3F)s2)cc1 [Example C232] |  |  |  | CDK4 % Inhibition at 0.03 μM (human CDK4/cyclin D3; 0.03 μM compound): 19%; HCT-116 % Inhibition at 0.1 μM (HCT-116 cell line; HCT-116 cells): 9%; HCT-116 % Inhibition at 0.25 μM (HCT-116 cell line; [1]): 53%; CDK2 % Inhibition at 0.03 μM (CDK2/cyclin A; 0.03 μM compound): 9%
13 | Nc1nc(Nc2ccc(C(=O)N[C@@H]3CCN(Cc4ccccc4)C3)cc2)sc1C(=O)c1c(F)cccc1F [Example C365] |  |  |  | CDK4 % Inhibition at 0.03 μM (human CDK4/cyclin D3; 0.03 μM compound): 22%; HCT-116 % Inhibition at 0.1 μM (HCT-116 cell line; HCT-116 cells): 34%; HCT-116 % Inhibition at 0.25 μM (HCT-116 cell line; [1]): 93%; CDK2 % Inhibition at 0.03 μM (CDK2/cyclin A; 0.03 μM compound): 8%
14 | Nc1nc(Nc2ccc(C(=O)NCCNc3ccccc3)c(O)c2)sc1C(=O)c1c(F)cccc1F [Example D1, 4-[4-Amino-5-(2,6-difluoro-benzoyl)-thiazol-2-ylamino]-2-hydroxy-N-(2-phenylamino-ethyl)-benzamide] | 1000 nM | 17 nM | 9.4 nM | 
15 | CC(CN(C)C)NC(=O)c1ccc(Nc2nc(N)c(C(=O)c3c(F)cccc3F)s2)cc1O (stereo not drawn) [Example D2, 4-[4-Amino-5-(2,6-difluoro-benzoyl)-thiazol-2-ylamino]-N-(2-dimethylamino-1RS-methyl-ethyl)-2-hydroxy-benzamide] | 580 nM | 25 nM | 51 nM | 
16 | CCCN(CC1CC1)C(=O)c1ccc(Nc2nc(N)c(C(=O)c3c(F)cccc3F)s2)cc1 [Example G1] |  |  |  | CDK4 % Inhibition at 0.03 μM (human CDK4/cyclin D3; at 0.03 μM): −10%; HCT-116 % Inhibition at 0.25 μM (HCT-116 cell line; HCT-116, at 0.25 μM): 56%; CDK2 % Inhibition at 0.03 μM (CDK2/cyclin A; at 0.03 μM): −3%
17 | CN1CCN(C(=O)c2ccc(Nc3nc(N)c(C(=O)c4c(F)cccc4F)s3)cc2)CC1 [Example G2] |  |  |  | CDK4 % Inhibition at 0.03 μM (human CDK4/cyclin D3; at 0.03 μM): 8%; HCT-116 % Inhibition at 0.25 μM (HCT-116 cell line; HCT-116, at 0.25 μM): 51%; CDK2 % Inhibition at 0.03 μM (CDK2/cyclin A; at 0.03 μM): −9%
